Columns and labels:
CYPES = experiment: Postemergence foliar-applied, direct seeded rice weeds (Example I); type: in vivo, Cyperus esculentus L.
Text: (§1) Seeds or nutlets of the desired test plant species were planted in a soil matrix prepared by mixing a loam or sandy loam soil (e.g., 28.6 percent silt, 18.8 percent clay, and 52.6 percent sand, with a pH of about 5.8 and an organic matter content of about 1.8 percent) and calcareous grit in an 80 to 20 ratio. The soil matrix was contained in plastic pots with a volume of 1 quart and a surface area of 83.6 cm^2. When required to ensure good germination and healthy plants, a fungicide treatment and/or other chemical or physical treatment was applied. The plants were grown for 8-22 days in a greenhouse with an approximate 14 h photoperiod which was maintained at about 29° C. during the day and 26° C. during the night. Nutrients (Peters Excel® 15-5-15 5-Ca 2-Mg and iron chelate) were applied in the irrigation solution as needed and water was added on a regular basis. Supplemental lighting was provided with overhead metal halide 1000-Watt lamps as necessary. The plants were employed for testing when they reached the first through fourth true leaf stage.
(§2) Treatments consisted of the acid or esters of 4-amino-3-chloro-5-fluoro-6-(4-chloro-2-fluoro-3-methoxy-phenyl)pyridine-2-carboxylic acid (Compound A), each formulated as an SC (suspension concentrate), and various herbicidal components alone and in combination. Forms of compound A were applied on an acid equivalent basis.
(§3) Other herbicidal components were applied on an acid equivalent basis and include acetolactate synthase (ALS)-inhibiting herbicides (imidazolinone chemical class) imazethapyr ammonium salt formulated as Newpath®, imazamox ammonium salt formulated as Beyond®, imazapic ammonium salt formulated as Plateau®, imazapyr isopropylamine salt formulated as Arsenal®, imazamethabenz-methyl (technical material) and imazaquin isopropylamine salt formulated as Scepter®/Imagine®.
(§4) Treatment requirements were calculated based upon the rates being tested, the concentration of active ingredient or acid equivalent in the formulation, and a 12 mL application volume at a rate of 187 L/ha.
(§5) For treatments comprised of formulated compounds, measured amounts of compounds were placed individually in 25 mL glass vials and diluted in a volume of 1.25% (v/v) Agri-Dex® crop oil concentrated to obtain 12× stock solutions. […] Application solutions were prepared by adding an appropriate amount of each stock solution (e.g., 1 mL) and diluted to the appropriate final concentrations with the addition of 10 mL of an aqueous mixture of 1.25% (v/v) crop oil concentrate so that the final spray solutions contained 1.25+/−0.05% (v/v) crop oil concentrate.
For treatments comprised of technical compounds, weighed amounts can be placed individually in 25 mL glass vials and dissolved in a volume of 97:3 v/v acetone/DMSO to obtain 12× stock solutions. […] Application solutions can be prepared by adding an appropriate amount of each stock solution (e.g., 1 mL) and diluted to the appropriate final concentrations with the addition of 10 mL of an aqueous mixture of 1.5% (v/v) crop oil concentrate so that the final spray solutions contain 1.25% (v/v) crop oil concentrate. When technical materials are used, the concentrated stock solutions can be added to the spray solutions so that the final acetone and DMSO concentrations of the application solutions are 16.2% and 0.5%, respectively.
(§6) For treatments comprised of formulated and technical compounds, weighed amounts of the technical materials were placed individually in 25 mL glass vials and dissolved in a volume of 97:3 v/v acetone/DMSO to obtain 12× stock solutions, and measured amounts of the formulated compounds were placed individually in 25 mL glass vials and diluted in a volume of 1.5% (v/v) crop oil concentrate or water to obtain 12× stock solutions. […]

DIGSA = experiment: as above; type: in vivo, Digitaria sanguinalis (L.) Scop.
Text: as §1, §2, §3, §4
For treatments comprised of formulated compounds, measured amounts of compounds were placed individually in 25 mL glass vials and diluted in a volume of 1.25% (v/v) Agri-Dex® crop oil concentrated to obtain 12× stock solutions. […]
as §6

ALOMY = experiment: Postemergence foliar-applied, general weed control (Example III); type: in vivo, Alopecurus myosuroides Huds.
Experimental: Seeds or nutlets of the desired test plant species were planted in Sun Gro Metro-Mix® 360 planting mixture, which typically has a pH of about 6.0 to about 6.8 and an organic matter content of about 30 percent, in plastic pots with a surface area of 84.6 cm^2 and a volume of 560 cubic centimeters (cm^3). When required to ensure good germination and healthy plants, a fungicide treatment and/or other chemical or physical treatment was applied. The plants were grown for 7-31 days (d) in a greenhouse with an approximate 15 hour (h) photoperiod which was maintained at about 23-29° C. during the day and about 22-28° C. during the night. Nutrients (Peters Excel® 15-5-15 5-Ca 2-Mg) and water were added on a regular basis and supplemental lighting was provided with overhead metal halide 1000-Watt lamps as necessary. The plants were employed for testing when they reached the first, second, or third true leaf stage.
as §4
Treatments consisted of the acid or esters of 4-amino-3-chloro-5-fluoro-6-(4-chloro-2-fluoro-3-methoxy-phenyl)pyridine-2-carboxylic acid (Compound A), each formulated as an SC, and various herbicidal components alone and in combination. Forms of compound A were applied on an acid equivalent basis.
Other herbicidal components were applied on an acid equivalent basis and included acetolactate synthase (ALS)-inhibiting herbicides (imidazolinone chemical class) imazethapyr ammonium salt formulated as Newpath®, and imazapic ammonium salt formulated as Plateau®.
as §5, with “(typically” for “(e.g.,”
All stock solutions and applications solutions were visually inspected for compound compatibility prior to application. […]
The treated plants and control plants were placed in a greenhouse as described above and watered by sub-irrigation to prevent wash-off of the test compounds. After approximately 3 weeks, the condition of the test plants as compared with that of the untreated plants was determined visually and scored on a scale of 0 to 100 percent where 0 corresponds to no injury or growth inhibition and 100 corresponds to complete kill. […]

## CCc1cnc(C2=NC(C)(C(C)C)C(=O)N2)c(C(=O)O)c1.N (racemic) [Imazethapyr ammonium, ammonium (±)-2-[4,5-dihydro-4-methyl-4-(1-methylethyl)-5-oxo-1H-imidazol-2-yl]-5-ethyl-3-pyridinecarboxylate]
CYPES; Imazethapyr ammonium 8.75 gae/ha
  Visual Weed Control (%) - 25 DAA CYPES Obs: 0%
DIGSA; Imazethapyr ammonium 70 gae/ha
  Visual Weed Control (%) - 20 DAA DIGSA Obs: 80%

## Cc1cnc(C2=NC(C)(C(C)C)C(=O)N2)c(C(=O)O)c1.N (racemic) [Imazapic ammonium, ammonium (±)-2-[4,5-dihydro-4-methyl-4-(1-methylethyl)-5-oxo-1H-imidazol-2-yl]-5-methyl-3-pyridinecarboxylic acid]
ALOMY; Imazapic ammonium 35 gae/ha
  Visual Control (%) - 19 DAA ALOMY Obs: 30%
  Visual Weed Control (%) - 19 DAA ALOMY Obs: 30%

## COc1c(Cl)ccc(-c2nc(C(=O)OCc3ccccc3)c(Cl)c(N)c2F)c1F [Compound A Benzyl Ester, benzyl ester of 4-amino-3-chloro-5-fluoro-6-(4-chloro-2-fluoro-3-methoxy-phenyl)pyridine-2-carboxylic acid]
CYPES; Compound A Benzyl Ester 4.38 gae/ha
  Visual Weed Control (%) - 25 DAA CYPES Obs: 70%
CYPES; Compound A Benzyl Ester 8.75 gae/ha
  Visual Weed Control (%) - 25 DAA CYPES Obs: 90%
CYPES; Compound A Benzyl Ester 17.5 gae/ha
  Visual Weed Control (%) - 25 DAA CYPES Obs: 85%
ALOMY; Compound A Benzyl Ester 24 gae/ha
  Visual Control (%) - 19 DAA ALOMY Obs: 20%

## COCc1cnc(C2=NC(C)(C(C)C)C(=O)N2)c(C(=O)O)c1.N (racemic) [Imazamox ammonium, ammonium (±)-2-[4,5-dihydro-4-methyl-4-(1-methylethyl)-5-oxo-1H-imidazol-2-yl]-5-(methoxymethyl)-3-pyridinecarboxylate]
CYPES; Imazamox ammonium 5.6 gae/ha
  Visual Weed Control (%) - 25 DAA CYPES Obs: 0%
CYPES; Imazamox ammonium 11.2 gae/ha
  Visual Weed Control (%) - 25 DAA CYPES Obs: 0%
CYPES; Imazamox ammonium 22.4 gae/ha
  Visual Weed Control (%) - 25 DAA CYPES Obs: 20%
DIGSA; Imazamox ammonium 44.8 gae/ha
  Visual Weed Control (%) - 20 DAA DIGSA Obs: 60%

## COc1c(Cl)ccc(-c2nc(C(=O)O)c(Cl)c(N)c2F)c1F [Compound A Acid, 4-amino-3-chloro-6-(4-chloro-2-fluoro-3-methoxyphenyl)-5-fluoropyridine-2-carboxylic acid]
CYPES; Compound A Acid 4.38 gae/ha
  Visual Weed Control (%) - 25 DAA CYPES Obs: 50%
DIGSA; Compound A Acid 19.3 gae/ha
  Visual Weed Control (%) - 20 DAA DIGSA Obs: 13%
ALOMY; Compound A Acid 29 gae/ha
  Visual Weed Control (%) - 19 DAA ALOMY Obs: 10%
